Converted amounts (≈) assume the structure as drawn. The source made the active and inactive calls. The calls are words filed in the database; no cut-off is given here.
Legend:
Assay type in all cases: functional
Enterococcus hirae [1] = test: Antimicrobial activity against Enterococcus hirae ATCC 10541 after 18 hrs by twofold dilution technique; conditions: ATCC 10541, 18 h
Staphylococcus aureus [2] = test: Antimicrobial activity against Methicillin susceptible Staphylococcus aureus 239/7 by twofold dilution technique
[3] = test system: Staphylococcus epidermidis; test: Antimicrobial activity against Staphylococcus epidermidis ATCC 12228 by twofold dilution technique
Bacillus cereus [4] = test: Antimicrobial activity against Bacillus cereus ATCC 11778 at 400 ug after 18 hrs by disk diffusion method; conditions: ATCC 11778, 18 h, read-out: DIZ
Staphylococcus aureus [5] = test: Antimicrobial activity against methicillin-resistant Staphylococcus aureus 136/6 by twofold dilution technique
Enterococcus hirae [6] = test: Antimicrobial activity against Enterococcus hirae ATCC 10541 at 400 ug after 18 hrs by disk diffusion method; conditions: ATCC 10541, 18 h, read-out: DIZ
Staphylococcus aureus [7] = test: Antimicrobial activity against Staphylococcus aureus ATCC 29213 at 400 ug after 18 hrs by disk diffusion method; conditions: ATCC 29213, 18 h, read-out: DIZ
Staphylococcus aureus [8] = test: Antimicrobial activity against Staphylococcus aureus ATCC 6538 at 400 ug after 18 hrs by disk diffusion method; conditions: ATCC 6538, 18 h, read-out: DIZ
Bacillus cereus [9] = test: Antimicrobial activity against Bacillus cereus ATCC 11778 after 18 hrs by twofold dilution technique; conditions: ATCC 11778, 18 h
Micrococcus luteus [10] = test: Antimicrobial activity against Micrococcus luteus ATCC 10240 by twofold dilution technique
Staphylococcus aureus [11] = test: Antimicrobial activity against Methicillin susceptible Staphylococcus aureus 242/7 by twofold dilution technique
Staphylococcus aureus [12] = test: Antimicrobial activity against methicillin-resistant Staphylococcus aureus 146/6 by twofold dilution technique
Staphylococcus aureus [13] = test: Antimicrobial activity against Staphylococcus aureus ATCC 29213 after 18 hrs by twofold dilution technique; conditions: ATCC 29213, 18 h
Staphylococcus aureus [14] = test: Antimicrobial activity against methicillin-resistant Staphylococcus aureus 140/6 by twofold dilution technique
Micrococcus luteus [15] = test: Antimicrobial activity against Micrococcus luteus ATCC 10240 at 400 ug after 18 hrs by disk diffusion method; conditions: ATCC 10240, 18 h, read-out: DIZ
Bacillus subtilis [16] = test: Antimicrobial activity against Bacillus subtilis ATCC 6633 after 18 hrs by twofold dilution technique; conditions: ATCC 6633, 18 h
Staphylococcus aureus [17] = test: Antimicrobial activity against Methicillin susceptible Staphylococcus aureus 237/7 by twofold dilution technique
[18] = test system: Staphylococcus epidermidis; test: Antimicrobial activity against Staphylococcus epidermidis ATCC 12228 at 400 ug after 18 hrs by disk diffusion method; conditions: ATCC 12228, 18 h, read-out: DIZ
Staphylococcus aureus [19] = test: Antimicrobial activity against methicillin-resistant Staphylococcus aureus 141/6 by twofold dilution technique
Staphylococcus aureus [20] = test: Antimicrobial activity against methicillin-resistant Staphylococcus aureus 144/6 by twofold dilution technique
Staphylococcus aureus [21] = test: Antimicrobial activity against methicillin-resistant Staphylococcus aureus 200/7 by twofold dilution technique
Staphylococcus aureus [22] = test: Antimicrobial activity against Methicillin susceptible Staphylococcus aureus 238/7 by twofold dilution technique
Staphylococcus aureus [23] = test: Antimicrobial activity against Methicillin susceptible Staphylococcus aureus 213/7 by twofold dilution technique
Micrococcus luteus [24] = test: Antimicrobial activity against Micrococcus luteus ATCC 9341 after 18 hrs by twofold dilution technique; conditions: ATCC 9341, 18 h
Staphylococcus aureus [25] = test: Antimicrobial activity against Staphylococcus aureus NCTC 4163 at 400 ug after 18 hrs by disk diffusion method; conditions: NCTC 4163, 18 h, read-out: DIZ
Staphylococcus aureus [26] = test: Antimicrobial activity against methicillin-resistant Staphylococcus aureus 217/7 by twofold dilution technique
Staphylococcus aureus [27] = test: Antimicrobial activity against Methicillin susceptible Staphylococcus aureus 212/7 by twofold dilution technique
Staphylococcus aureus [28] = test: Antimicrobial activity against Methicillin susceptible Staphylococcus aureus 206/7 by twofold dilution technique
Staphylococcus aureus [29] = test: Antimicrobial activity against methicillin-resistant Staphylococcus aureus 143/6 by twofold dilution technique
Staphylococcus aureus [30] = test: Antimicrobial activity against methicillin-resistant Staphylococcus aureus 236/7 by twofold dilution technique
Staphylococcus aureus [31] = test: Antimicrobial activity against methicillin-resistant Staphylococcus aureus 218/7 by twofold dilution technique
Staphylococcus aureus [32] = test: Antimicrobial activity against Staphylococcus aureus ATCC 6538 after 18 hrs by twofold dilution technique; conditions: ATCC 6538, 18 h
Staphylococcus aureus [33] = test: Antimicrobial activity against Methicillin susceptible Staphylococcus aureus 207/7 by twofold dilution technique
Staphylococcus aureus [34] = test: Antimicrobial activity against Staphylococcus aureus ATCC 25923 at 400 ug after 18 hrs by disk diffusion method; conditions: ATCC 25923, 18 h, read-out: DIZ
Micrococcus luteus [35] = test: Antimicrobial activity against Micrococcus luteus ATCC 9341 at 400 ug after 18 hrs by disk diffusion method
Staphylococcus aureus [36] = test: Antimicrobial activity against Staphylococcus aureus ATCC 25923 after 18 hrs by twofold dilution technique; conditions: ATCC 25923, 18 h
Staphylococcus aureus [37] = test: Antimicrobial activity against Methicillin susceptible Staphylococcus aureus 243/7 by twofold dilution technique
Bacillus subtilis [38] = test: Antimicrobial activity against Bacillus subtilis ATCC 6633 at 400 ug after 18 hrs by disk diffusion method; conditions: ATCC 6633, 18 h, read-out: DIZ
Staphylococcus aureus [39] = test: Antimicrobial activity against Methicillin susceptible Staphylococcus aureus 208/7 by twofold dilution technique
Staphylococcus aureus [40] = test: Antimicrobial activity against Staphylococcus aureus NCTC 4163 after 18 hrs by twofold dilution technique; conditions: NCTC 4163, 18 h

SMILES	MIC (Enterococcus hirae [1]) [µg/mL]	MIC (Staphylococcus aureus [2]) [µg/mL]	MIC [3] [µg/mL]	zone of inhibition at 400 µg/disc (Bacillus cereus [4]) [mm]	MIC (Staphylococcus aureus [5]) [µg/mL]	zone of inhibition at 400 µg/disc (Enterococcus hirae [6]) [mm]	zone of inhibition at 400 µg/disc (Staphylococcus aureus [7]) [mm]	zone of inhibition at 400 µg/disc (Staphylococcus aureus [8]) [mm]	MIC (Bacillus cereus [9]) [µg/mL]	MIC (Micrococcus luteus [10]) [µg/mL]	MIC (Staphylococcus aureus [11]) [µg/mL]	MIC (Staphylococcus aureus [12]) [µg/mL]	MIC (Staphylococcus aureus [13]) [µg/mL]	MIC (Staphylococcus aureus [14]) [µg/mL]	zone of inhibition at 400 µg/disc (Micrococcus luteus [15]) [mm]	MIC (Bacillus subtilis [16]) [µg/mL]	MIC (Staphylococcus aureus [17]) [µg/mL]	zone of inhibition at 400 µg/disc [18] [mm]	MIC (Staphylococcus aureus [19]) [µg/mL]	MIC (Staphylococcus aureus [20]) [µg/mL]	also measured
COc1ccc2[nH]cc(CCN/C=C3\C(=O)C(O)=C(C(C)C)c4cc(C)c(-c5c(C)cc6c(c5O)/C(=C/NCCc5c[nH]c7ccc(OC)cc57)C(=O)C(O)=C6C(C)C)c(O)c43)c2c1	100 (≈ 116 µM)	100 (≈ 116 µM)	200 (≈ 232 µM)	15	100 (≈ 116 µM)	14	15	16	100 (≈ 116 µM)	100 (≈ 116 µM)	50 (≈ 57.9 µM)	100 (≈ 116 µM)	50 (≈ 57.9 µM)	100 (≈ 116 µM)	15	200 (≈ 232 µM)	100 (≈ 116 µM)	15	100 (≈ 116 µM)	200 (≈ 232 µM)	MIC (Staphylococcus aureus [21]): 100 µg/mL (≈ 116 µM); MIC (Staphylococcus aureus [22]): 100 µg/mL (≈ 116 µM); MIC (Staphylococcus aureus [23]): 100 µg/mL (≈ 116 µM); MIC (Micrococcus luteus [24]): 100 µg/mL (≈ 116 µM); zone of inhibition at 400 µg/disc (Staphylococcus aureus [25]): 16 mm; MIC (Staphylococcus aureus [26]): 200 µg/mL (≈ 232 µM); MIC (Staphylococcus aureus [27]): 100 µg/mL (≈ 116 µM); MIC (Staphylococcus aureus [28]): 100 µg/mL (≈ 116 µM); MIC (Staphylococcus aureus [29]): 100 µg/mL (≈ 116 µM); MIC (Staphylococcus aureus [30]): 100 µg/mL (≈ 116 µM); MIC (Staphylococcus aureus [31]): 100 µg/mL (≈ 116 µM); MIC (Staphylococcus aureus [32]): 50 µg/mL (≈ 57.9 µM); MIC (Staphylococcus aureus [33]): 200 µg/mL (≈ 232 µM); zone of inhibition at 400 µg/disc (Staphylococcus aureus [34]): 15 mm; zone of inhibition at 400 µg/disc (Micrococcus luteus [35]; ATCC 9341, 18 h, read-out: DIZ): 11 mm; MIC (Staphylococcus aureus [36]): 100 µg/mL (≈ 116 µM); MIC (Staphylococcus aureus [37]): 100 µg/mL (≈ 116 µM); zone of inhibition at 400 µg/disc (Bacillus subtilis [38]): 15 mm; MIC (Staphylococcus aureus [39]): 100 µg/mL (≈ 116 µM); MIC (Staphylococcus aureus [40]): 100 µg/mL (≈ 116 µM)
COCCN/N=C/c1c(O)c(O)c(C(C)C)c2cc(C)c(-c3c(C)cc4c(C(C)C)c(O)c(O)c(/C=N/NCCOC)c4c3O)c(O)c12	100 (≈ 151 µM)	100 (≈ 151 µM)	400 (≈ 604 µM)	13	100 (≈ 151 µM)	11	14	13	50 (≈ 75.4 µM)	100 (≈ 151 µM)	50 (≈ 75.4 µM)	100 (≈ 151 µM)	50 (≈ 75.4 µM)	50 (≈ 75.4 µM)	14	400 (≈ 604 µM)	100 (≈ 151 µM)	15	100 (≈ 151 µM)	100 (≈ 151 µM)	MIC (Staphylococcus aureus [21]): 50 µg/mL (≈ 75.4 µM); MIC (Staphylococcus aureus [22]): 50 µg/mL (≈ 75.4 µM); MIC (Staphylococcus aureus [23]): 50 µg/mL (≈ 75.4 µM); MIC (Micrococcus luteus [24]): 50 µg/mL (≈ 75.4 µM); zone of inhibition at 400 µg/disc (Staphylococcus aureus [25]): 14 mm; MIC (Staphylococcus aureus [26]): 100 µg/mL (≈ 151 µM); MIC (Staphylococcus aureus [27]): 100 µg/mL (≈ 151 µM); MIC (Staphylococcus aureus [28]): 50 µg/mL (≈ 75.4 µM); MIC (Staphylococcus aureus [29]): 50 µg/mL (≈ 75.4 µM); MIC (Staphylococcus aureus [30]): 100 µg/mL (≈ 151 µM); MIC (Staphylococcus aureus [31]): 100 µg/mL (≈ 151 µM); MIC (Staphylococcus aureus [32]): 50 µg/mL (≈ 75.4 µM); MIC (Staphylococcus aureus [33]): 50 µg/mL (≈ 75.4 µM); zone of inhibition at 400 µg/disc (Staphylococcus aureus [34]): 15 mm; diameter of the inhibition zone (DIZ) (Micrococcus luteus [35]): inactive; MIC (Staphylococcus aureus [36]): 50 µg/mL (≈ 75.4 µM); MIC (Staphylococcus aureus [37]): 100 µg/mL (≈ 151 µM); zone of inhibition at 400 µg/disc (Bacillus subtilis [38]): 13 mm; MIC (Staphylococcus aureus [39]): 50 µg/mL (≈ 75.4 µM); MIC (Staphylococcus aureus [40]): 100 µg/mL (≈ 151 µM)

From ChEMBL document CHEMBL1155271, “Synthesis, crystal structures and antibacterial activity studies of aza-derivatives of phytoalexin from cotton plant--gossypol” (2009)
